What was measured:
[1] = tested on: SKRC52 human renal tumor xenograft; experiment: Whole body fluorescence imaging of SKRC52 human renal tumor xenograft bearing mouse (IVIS imager); assay type: in vivo; conditions: 10 nmol
Experimental: SKRC52 human renal tumor xenograft bearing mouse was injected with 10 nmol of 54 and imaged with IVIS imager (ex=745 nm, em=ICG, exposure time=1 s) at different time intervals.
SKRC52 human renal tumor xenograft bearing mouse was injected with 10 nmol of 55 and imaged with IVIS imager (ex=745 nm, em=ICG, exposure time=1 s) at different time intervals.
SKRC52 human renal tumor xenograft bearing mouse was injected with 10 nmol of 60 and imaged with IVIS imager (ex=745 nm, em=ICG, exposure time=[…]) at different time intervals.
SKRC52 human renal tumor xenograft bearing mouse was injected with 10 nmol of 61 and imaged with IVIS imager (ex=745 nm, em=ICG, exposure time=[…]) at different time intervals.
SKRC52 human renal tumor xenograft bearing mouse was injected with 10 nmol of 62 and imaged with IVIS imager (ex=745 nm, em=ICG, exposure time=1 s) at different time intervals.
SKRC52 human renal tumor xenograft bearing mouse was injected with 10 nmol of 65 and imaged with IVIS imager (ex=745 nm, em=ICG, exposure time=1 s) at different time intervals.
SKRC52 human renal tumor xenograft bearing mouse was injected with 10 nmol of 69 and imaged with IVIS imager (ex=745 nm, em=ICG, exposure time=1 s) at different time intervals.
SKRC52 human renal tumor xenograft bearing mouse was injected with 10 nmol of 70 and imaged with IVIS imager (ex=745 nm, em=ICG, exposure time=1 s) at different time intervals.
SKRC52 human renal tumor xenograft bearing mouse was injected with 10 nmol 72 and imaged with IVIS imager (ex=745 nm, em=ICG, exposure time=1 s) at different time intervals
SKRC52 human renal tumor xenograft bearing mouse was injected with 10 nmol of 76 and imaged with IVIS imager (ex=745 nm, em=ICG, exposure time=1 s) at different time intervals
SKRC52 human renal tumor xenograft bearing mouse was injected with 10 nmol of 77 and imaged with IVIS imager (ex=745 nm, em=ICG, exposure time=1 s) at different time intervals
SKRC52 human renal tumor xenograft bearing mouse was injected with 10 nmol of 80 and imaged with IVIS imager (ex=745 nm, em=ICG, exposure time=1 s) at different time intervals
SKRC52 human renal tumor xenograft bearing mouse was injected with 10 nmol of 81 and imaged with IVIS imager (ex=745 nm, em=ICG, exposure time=1 s) at different time intervals
SKRC52 human renal tumor xenograft bearing mouse was injected with 10 nmol of 85 and imaged with IVIS imager (ex=745 nm, em=ICG, exposure time=1 s) at different time intervals
SKRC52 human renal tumor xenograft bearing mouse was injected with 10 nmol of 86 and imaged with IVIS imager (ex=745 nm, em=ICG, exposure time=1 s) at different time intervals
SKRC52 human renal tumor xenograft bearing mouse was injected with 10 nmol of 87 and imaged with IVIS imager (ex=745 nm, em=ICG, exposure time=1 s) at different time intervals
SKRC52 human renal tumor xenograft bearing mouse was injected with 10 nmol of 88 and imaged with IVIS imager (ex=745 nm, em=ICG, exposure time=1 s) at different time intervals
SKRC52 human renal tumor xenograft bearing mouse was injected with 10 nmol of 89 and imaged with IVIS imager (ex=745 nm, em=ICG, exposure time=1 s) at different time intervals
SKRC52 human renal tumor xenograft bearing mouse was injected with 10 nmol of 90 and imaged with IVIS imager (ex=745 nm, em=ICG, exposure time=1 s) at different time intervals
SKRC52 human renal tumor xenograft bearing mouse was injected with 10 nmol of 93 and imaged with IVIS imager (ex=745 nm, em=ICG, exposure time=1 s) at different time intervals
SKRC52 human renal tumor xenograft bearing mouse was injected with 10 nmol of 95 and imaged with IVIS imager (ex=745 nm, em=ICG, exposure time=1 s) at different time intervals
SKRC52 human renal tumor xenograft bearing mouse was injected with 10 nmol of 99 and imaged with IVIS imager (ex=745 nm, em=ICG, exposure time=1 s) at different time intervals […]

[2] = in the presence and absence of light; cited from earlier work
[3] = imaged at different time intervals
[4] = within 2-24 hours after administering to the animal

Row | SMILES | tumor-to-background ratio (TBR) [1, 3] | tumor-to-skin ratio [1, 3] | accumulation retained in the tumor (fluorescence over 24 hours) [1] | whole-body imaging data [1, 4] | also measured
1 | CC1(C)C(/C=C/C2=C(Oc3ccc(C[C@H](NC(=O)CCOCCOCCNC(=O)CCS(=O)(=O)c4c(F)c(F)c(S(N)(=O)=O)c(F)c4NC4CCCCC4)C(=O)O)cc3)C(=C/C=C3/N(CCCCS(=O)(=O)O)c4ccc(S(=O)(=O)O)cc4C3(C)C)/CCC2)=[N+](CCCCS(=O)(=O)[O-])c2ccc(S(=O)(=O)O)cc21 [Compound 60] | excellent | excellent | very high accumulation | very good | 
2 | CC1(C)C(/C=C/C2=C(Oc3ccc(C[C@H](NC(=O)CCS(=O)(=O)c4c(F)c(F)c(S(N)(=O)=O)c(F)c4NC4CCCCCCC4)C(=O)O)cc3)C(=C/C=C3/N(CCCCS(=O)(=O)O)c4ccc(S(=O)(=O)O)cc4C3(C)C)/CCC2)=[N+](CCCCS(=O)(=O)[O-])c2ccc(S(=O)(=O)O)cc21 [Compound 62] | excellent | excellent | very high accumulation | very good | 
3 | CC1(C)C(/C=C/C2=C(Oc3ccc(C[C@H](NC(=O)CCOCCOCCNC(=O)CCS(=O)(=O)c4c(F)c(F)c(S(N)(=O)=O)c(F)c4NC4CCC(F)(F)CC4)C(=O)O)cc3)C(=C/C=C3/N(CCCCS(=O)(=O)O)c4ccc(S(=O)(=O)O)cc4C3(C)C)/CCC2)=[N+](CCCCS(=O)(=O)[O-])c2ccc(S(=O)(=O)O)cc21 [Compound 72] | excellent | excellent | very high accumulation | very good | 
4 | CC(C)C[C@H](Nc1c(F)c(S(N)(=O)=O)c(F)c(F)c1S(=O)(=O)CCC(=O)NCCOCCOCCC(=O)N[C@@H](Cc1ccc(OC2=C(/C=C/C3=[N+](CCCCS(=O)(=O)[O-])c4ccc(S(=O)(=O)O)cc4C3(C)C)CCC/C2=C\C=C2\N(CCCCS(=O)(=O)O)c3ccc(S(=O)(=O)O)cc3C2(C)C)cc1)C(=O)O)C(=O)OCc1ccccc1 [Compound 76] | excellent | excellent | very high accumulation | very good | 
5 | CC(C)C[C@H](Nc1c(F)c(S(N)(=O)=O)c(F)c(F)c1S(=O)(=O)CCC(=O)NCCOCCOCCC(=O)N[C@@H](Cc1ccc(OC2=C(/C=C/C3=[N+](CCCCS(=O)(=O)[O-])c4ccc(S(=O)(=O)O)cc4C3(C)C)CCC/C2=C\C=C2\N(CCCCS(=O)(=O)O)c3ccc(S(=O)(=O)O)cc3C2(C)C)cc1)C(=O)O)C(=O)O [Compound 77] | excellent | excellent | very high accumulation | very good | 
6 | CC1(C)C(/C=C/C2=C(Oc3ccc(C[C@H](NC(=O)CCOCCOCCNC(=O)CCS(=O)(=O)c4ccc(S(N)(=O)=O)cc4NC4CCCCCCC4)C(=O)O)cc3)C(=C/C=C3/N(CCCCS(=O)(=O)O)c4ccc(S(=O)(=O)O)cc4C3(C)C)/CCC2)=[N+](CCCCS(=O)(=O)[O-])c2ccc(S(=O)(=O)O)cc21 [Compound 85] | excellent | excellent | very high accumulation | very good | tumor fluorescence intensity and tumor-to-background ratio compared to the compound 61 [1]: less
7 | CC1(C)C(/C=C/C2=C(Oc3ccc(C[C@H](NC(=O)CCOCCOCCNc4c(F)c(S(N)(=O)=O)c(F)c(F)c4S(=O)(=O)CCO)C(=O)O)cc3)C(=C/C=C3/N(CCCCS(=O)(=O)O)c4ccc(S(=O)(=O)O)cc4C3(C)C)/CCC2)=[N+](CCCCS(=O)(=O)[O-])c2ccc(S(=O)(=O)O)cc21 [Compound 86] |  |  |  | very good | brightness compared to 60 and 61 [1]: less brighter
8 | CC1(C)C(=CC=C2CCCC(C=CC3=[N+](CCCCS(=O)(=O)[O-])c4ccc(S(=O)(=O)O)cc4C3(C)C)=C2Oc2ccc(CC(NC(=O)CCOCCOCCNC(=O)CCS(=O)(=O)c3c(F)c(F)c(S(N)(=O)=O)c(F)c3NC(c3ccccc3)c3ccccc3)C(=O)O)cc2)N(CCCCS(=O)(=O)O)c2ccc(S(=O)(=O)O)cc21 (stereo not shown) [Compound 88] |  |  |  |  | whole-body imaging data ([1]; after 8 hours of administering): good; tumor-to-background ratio (TBR) ([1]; at 24 hour time point): excellent; tumor-to-skin ratio ([1]; at 24 hour time point): excellent
9 | CN(C)C(N(c1c(F)c(S(N)(=O)=O)c(F)c(F)c1S(=O)(=O)CCC(=O)NCCOCCOCCC(=O)N[C@@H](Cc1ccc(OC2=C(/C=C/C3=[N+](CCCCS(=O)(=O)O)c4ccc(S(=O)(=O)O)cc4C3(C)C)CCC/C2=C\C=C2\N(CCCCS(=O)(=O)O)c3ccc(S(=O)(=O)O)cc3C2(C)C)cc1)C(=O)O)C1CCCCCCC1)=[N+](C)C [Compound 104] | excellent | excellent | very high accumulation | good | 
10 | CC1(C)C(/C=C/C=C/C=C/C=C2\N(CCCCS(=O)(=O)[O-])c3ccc4ccccc4c3C2(C)C)=[N+](CCCCS(=O)(=O)[O-])c2ccc3ccccc3c21.[Na+] [IR125] |  |  |  |  | in vitro cytotoxicity [2]: significant values of cytotoxicity
11 | CN1/C(=C/C=C2\CCCC(/C=C/C3=[N+](C)c4ccc5ccccc5c4C3(C)C)=C2Cl)C(C)(C)c2c1ccc1ccccc21.Cc1ccc(S(=O)(=O)[O-])cc1 [IR813] |  |  |  |  | in vitro cytotoxicity [2]: significant values of cytotoxicity
12 | CC1(C)C(=CC=C2CCCC(C=CC3=[N+](CCCCS(=O)(=O)[O-])c4ccc5ccccc5c4C3(C)C)=C2Cl)N(CCCCS(=O)(=O)[O-])c2ccc3ccccc3c21.[Na+] [IR820] |  |  |  |  | in vitro cytotoxicity [2]: no major cytotoxic effects

Reference: patent publication US11555821B2, “CA IX-NIR dyes and their uses” (On Target Laboratories, Inc., priority 2016, dated 2023)
